# Data: US11479539B2, “Small molecule modulators of the BTB domain of Keap1” (MedImmune Limited, priority 2017, dated 2022)
# Molecular target: Keap1 (Homo sapiens (Human), UniProt Q14145)
# Assay: HEK293 ARE luciferase assay
# Type: cell-based
# Conditions: HEK-293 ARE firefly luciferase transiently transfected cells; 18 h incubation; mean of 1 to 20 individual measurements
# Method in brief: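 Transiently transfected HEK-293 ARE firefly luciferase cells (10,000/well, DMEM with 10% FCS) exposed to compound, 10-point curve from 100 μM top, 0.3% DMSO, 18 h at 37 °C. SteadyGlo luminescence; activity normalised to 30 μM tBHQ (stimulator) and DMSO (neutral), activity threshold 50; means of 1-20 measurements.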
# Chain of Keap1 (Q14145 whole entry): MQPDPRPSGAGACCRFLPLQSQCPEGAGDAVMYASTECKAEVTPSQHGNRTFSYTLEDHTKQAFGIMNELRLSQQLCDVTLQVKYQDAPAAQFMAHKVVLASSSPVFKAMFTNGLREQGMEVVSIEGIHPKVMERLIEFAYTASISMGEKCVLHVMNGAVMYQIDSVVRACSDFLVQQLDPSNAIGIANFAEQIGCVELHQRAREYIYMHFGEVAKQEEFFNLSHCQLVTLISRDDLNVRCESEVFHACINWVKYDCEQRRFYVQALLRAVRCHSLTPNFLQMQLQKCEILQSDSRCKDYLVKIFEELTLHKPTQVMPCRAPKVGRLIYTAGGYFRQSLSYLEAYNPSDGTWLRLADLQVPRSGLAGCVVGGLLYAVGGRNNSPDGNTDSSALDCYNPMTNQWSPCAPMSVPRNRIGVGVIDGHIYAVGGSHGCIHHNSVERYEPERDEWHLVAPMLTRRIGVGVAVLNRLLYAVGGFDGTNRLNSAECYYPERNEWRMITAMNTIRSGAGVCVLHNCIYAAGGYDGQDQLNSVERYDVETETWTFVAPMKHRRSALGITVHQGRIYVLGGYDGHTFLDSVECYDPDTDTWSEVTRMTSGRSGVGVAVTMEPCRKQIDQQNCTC
row,Structure (SMILES),EC50 [nM]
1,"COC1(c2ncc(F)cc2-c2cnn(C)c2)C=C(C#N)C(=O)C(C)(C)C1 (single isomer, unassigned) [Compound 69, 3-[5-fluoro-3-(1-methyl-1H-pyrazol-4-yl)pyridin-2-yl]-3-methoxy-5,5-dimethyl-6-oxocyclohex-1-ene-1-carbonitrile]",2
2,"COC1(c2cncc(C)n2)C=C(C#N)C(=O)C(C)(C)C1 (stereo not shown) [Compound 30, 3-methoxy-5,5-dimethyl-3-(6-methylpyrazin-2-yl)-6-oxocyclohex-1-enecarbonitrile]",458
3,"COC1(c2ccc(F)cn2)C=C(C#N)C(=O)C(C)(C)C1 (single isomer, unassigned) [Compound 27, 3-(5-fluoropyridin-2-yl)-3-methoxy-5,5-dimethyl-6-oxocyclohex-1-enecarbonitrile]",180
4,"CCOC1(c2ccc(F)cn2)C=C(C#N)C(=O)C(C)(C)C1 (single isomer, unassigned) [Compound 37, 3-ethoxy-3-(5-fluoropyridin-2-yl)-5,5-dimethyl-6-oxocyclohex-1-enecarbonitrile]",86
5,"COC1(c2nc(C)c(-c3ccccn3)s2)C=C(C#N)C(=O)C(C)(C)C1 (stereo not shown) [Compound 155, 3-methoxy-5,5-dimethyl-3-[4-methyl-5-(pyridin-2-yl)-1,3-thiazol-2-yl]-6-oxocyclohex-1-ene-1-carbonitrile]",161
6,"COC1(c2ncc(F)cc2-c2ccns2)C=C(C#N)C(=O)C(C)(C)C1 (stereo not shown) [Compound 178, 3-[5-fluoro-3-(1,2-thiazol-5-yl)pyridin-2-yl]-3-methoxy-5,5-dimethyl-6-oxocyclohex-1-ene-1-carbonitrile]",52
7,"COC1(c2cccc(-c3cnc(C)nc3)n2)C=C(C#N)C(=O)C2(CC2)C1 (stereo not shown) [Compound 128, 7-methoxy-7-[6-(2-methylpyrimidin-5-yl)pyridin-2-yl]-4-oxospiro[2.5]oct-5-ene-5-carbonitrile]",145
8,"COC1(c2ncc(F)cc2-c2cncc(S(C)(=O)=O)c2)C=C(C#N)C(=O)C(C)(C)C1 (single isomer, unassigned) [Compound 235, 3-[5-fluoro-5′-(methylsulfonyl)[3,3′-bipyridin]-2-yl)-3-methoxy-5,5-dimethyl-6-oxocyclohex-1-ene-1-carbonitrile]",79
9,"COC1(c2ncccc2C(F)(F)F)C=C(C#N)C(=O)C2(CCCC2)C1 (stereo not shown) [Compound 148, 9-methoxy-6-oxo-9-[3-(trifluoromethyl)pyridin-2-yl]spiro[4.5]dec-7-ene-7-carbonitrile]",252
10,"COC1(c2ncc(F)cc2-c2ccnc(C)c2)C=C(C#N)C(=O)C(C)(C)C1 (single isomer, unassigned) [Compound 76, 3-[5-fluoro-3-(2-methyl-4-pyridyl)-2-pyridyl]-3-methoxy-5,5-dimethyl-6-oxo-cyclohexene-1-carbonitrile]",3
11,"COC1(c2ncc(F)cc2-c2cnn(C)c2C)C=C(C#N)C(=O)C(C)(C)C1 (stereo not shown) [Compound 164, 3-[3-(1,5-dimethyl-1H-pyrazol-4-yl)-5-fluoropyridin-2-yl]-3-methoxy-5,5-dimethyl-6-oxocyclohex-1-ene-1-carbonitrile]",28
12,"COC1(c2ncc(F)cc2-c2cnn(-c3ccccc3)c2)C=C(C#N)C(=O)C(C)(C)C1 (stereo not shown) [Compound 179, 3-[5-fluoro-3-(1-phenyl-1H-pyrazol-4-yl)pyridin-2-yl]-3-methoxy-5,5-dimethyl-6-oxocyclohex-1-ene-1-carbonitrile]",7
13,"CCn1cc(-c2cc(F)cnc2C2(OC)C=C(C#N)C(=O)C(C)(C)C2)cn1 (single isomer, unassigned) [Compound 86, 3-[3-(1-ethylpyrazol-4-yl)-5-fluoro-2-pyridyl]-3-methoxy-5,5-dimethyl-6-oxo-cyclohexene-1-carbonitrile]",9
14,"COC1(c2ncc(F)cc2-c2cnc(C(F)(F)F)nc2)C=C(C#N)C(=O)C(C)(C)C1 (single isomer, unassigned) [Compound 210, 3-{5-fluoro-3-[2-(trifluoromethyl)pyrimidin-5-yl]pyridin-2-yl}-3-methoxy-5,5-dimethyl-6-oxocyclohex-1-ene-1-carbonitrile]",20
15,"COC1(c2ncc(F)cc2OC(F)F)C=C(C#N)C(=O)C2(CC2)C1 (stereo not shown) [Compound 160, 7-[3-(difluoromethoxy)-5-fluoropyridin-2-yl]-7-methoxy-4-oxospiro[2.5]oct-5-ene-5-carbonitrile]",20
16,"COC1(c2ncc(F)cc2-c2ccc(F)cc2)C=C(C#N)C(=O)C(C)(C)C1 (stereo not shown) [Compound 163, 3-[5-fluoro-3-(4-fluorophenyl)pyridin-2-yl]-3-methoxy-5,5-dimethyl-6-oxocyclohex-1-ene-1-carbonitrile]",54
17,"COC1(c2ncc(Cl)cc2F)C=C(C#N)C(=O)C2(CC2)C1 (single isomer, unassigned) [Compound 61, 7-(5-chloro-3-fluoropyridin-2-yl)-7-methoxy-4-oxospiro[2.5]oct-5-ene-5-carbonitrile]",79

row,Structure (SMILES),EC50 [nM]
1,"COC1(c2ncc(F)cc2-c2cnn(CC(F)(F)F)c2)C=C(C#N)C(=O)C(C)(C)C1 (single isomer, unassigned) [Compound 228, 3-{5-fluoro-3-[1-(2,2,2-trifluoroethyl)-1H-pyrazol-4-yl]pyridin-2-yl}-3-methoxy-5,5-dimethyl-6-oxocyclohex-1-ene-1-carbonitrile]",15
2,"COC1(c2ccc(C(F)(F)F)cn2)C=C(C#N)C(=O)C(C)(C)C1 (stereo not shown) [Compound 3, 3-methoxy-5,5-dimethyl-6-oxo-3-[5-(trifluoromethyl)-2-pyridyl]cyclohexene-1-carbonitrile]",424
3,"COC1(c2sccc2C)C=C(C#N)C(=O)C(C)(C)C1 (stereo not shown) [Compound 139, 3-methoxy-5,5-dimethyl-3-(3-methylthiophen-2-yl)-6-oxocyclohex-1-ene-1-carbonitrile]",381
4,"COC1(c2ncc(F)cc2F)C=C(C#N)C(=O)C2(CC2)C1 (single isomer, unassigned) [Compound 60, 7-(3,5-difluoropyridin-2-yl)-7-methoxy-4-oxospiro[2.5]oct-5-ene-5-carbonitrile]",153
5,"COC1(c2ncc(F)cc2C)C=C(C#N)C(=O)C2(CCCC2)C1 (single isomer, unassigned) [Compound 68, 9-(5-fluoro-3-methylpyridin-2-yl)-9-methoxy-6-oxospiro[4.5]dec-7-ene-7-carbonitrile]",70
6,"COC1(c2ncc(F)cc2-c2cncc(C#N)c2)C=C(C#N)C(=O)C(C)(C)C1 (single isomer, unassigned) [Compound 85, 2′-(3-cyano-1-methoxy-5,5-dimethyl-4-oxocyclohex-2-enyl)-5′-fluoro-3,3′-bipyridine-5-carbonitrile]",6
7,"COC1(c2ncc(F)cc2-c2cnc(C)nc2)C=C(C#N)C(=O)C(C)(C)C1 (single isomer, unassigned) [Compound 89, 3-[5-fluoro-3-(2-methylpyrimidin-5-yl)-2-pyridyl]-3-methoxy-5,5-dimethyl-6-oxo-cyclohexene-1-carbonitrile]",11
8,"COc1cc(-c2cc(F)cnc2C2(OC)C=C(C#N)C(=O)C(C)(C)C2)c(Cl)cn1 (single isomer, unassigned) [Compound 218, 3-(5′-chloro-5-fluoro-2′-methoxy[3,4′-bipyridin]-2-yl)-3-methoxy-5,5-dimethyl-6-oxocyclohex-1-ene-1-carbonitrile]",23
9,"COC1(c2ncc(F)cc2-c2cn(C)nc2C)C=C(C#N)C(=O)C(C)(C)C1 (single isomer, unassigned) [Compound 78, 3-[3-(1,3-dimethylpyrazol-4-yl)-5-fluoro-2-pyridyl]-3-methoxy-5,5-dimethyl-6-oxo-cyclohexene-1-carbonitrile]",2
10,"COC1(c2nc(C(F)(F)F)cs2)C=C(C#N)C(=O)C(C)(C)C1 (single isomer, unassigned) [Compound 33, 3-methoxy-5,5-dimethyl-6-oxo-3-(4-(tri-fluoromethyl)thia-zol-2-yl)cyclohex-1-enecarbonitrile]",383
11,"COC1CN(c2cccc(C3(OC)C=C(C#N)C(=O)C(C)(C)C3)n2)C1 (stereo not shown) [Compound 8, 3-methoxy-3-[6-(3-methoxyazetidin-1-yl)-2-pyridyl]-5,5-dimethyl-6-oxo-cyclohexene-1-carbonitrile]",186
12,"CCn1cc(-c2cc(F)cnc2C2(OC)C=C(C#N)C(=O)C(C)(C)C2)cn1 (stereo not shown) [Compound 181, 3-[3-(1-ethyl-1H-pyrazol-4-yl)-5-fluoropyridin-2-yl]-3-methoxy-5,5-dimethyl-6-oxocyclohex-1-ene-1-carbonitrile]",68
13,"COC1(c2ncccc2OC(F)(F)F)C=C(C#N)C(=O)C(C)(C)C1 (stereo not shown) [Compound 147, 3-methoxy-5,5-dimethyl-6-oxo-3-[3-(trifluoromethoxy)pyridin-2-yl]cyclohex-1-ene-1-carbonitrile]",22
14,"COC1(c2ncc(Cl)cc2F)C=C(C#N)C(=O)C2(CC2)C1 (stereo not shown) [Compound 157, 7-(5-chloro-3-fluoropyridin-2-yl)-7-methoxy-4-oxospiro[2.5]oct-5-ene-5-carbonitrile]",448
15,"COC1(c2ncccc2-c2cnn(C)c2)C=C(C#N)C(=O)C(C)(C)C1 (single isomer, unassigned) [Compound 23, 3-methoxy-5,5-dimethyl-3-(3-(1-methyl-1H-pyrazol-4-yl)pyridin-2-yl)-6-oxocyclohex-1-enecarbonitrile]",56
16,"COC1(c2cccnc2Cl)C=C(C#N)C(=O)C(C)(C)C1 (stereo not shown) [Compound 18, 3-(2-chloro-3-pyridyl)-3-methoxy-5,5-dimethyl-6-oxo-cyclohexene-1-carbonitrile]",265
17,"COC1(c2cccc(-c3ccccc3F)n2)C=C(C#N)C(=O)C(C)(C)C1 (stereo not shown) [Compound 118, 3-[6-(2-fluorophenyl)pyridin-2-yl)-3-methoxy-5,5-dimethyl-6-oxocyclohex-1-ene-1-carbonitrile]",355
